Reference: US6407139B1, “Neovascularization inhibitor” (Kissei Pharmaceutical Co., Ltd., priority 1996, dated 2002)

Legend:
Format in all cases: cell-based
[1] = tested on: human microvascular endothelial cells; assay: Inhibition of proliferation of human microvascular endothelial cells; settings: normal human dermal microvascular endothelial cells, 2 days incubation with various concentrations, FIG. 1
Description: Normal human dermal microvascular endothelial cells (Cell Systems Corporation) were subcultured in a medium (MVE medium, Cell Systems Corporation) for endothelial cell culture and used for the study. At the logarithmic growth phase, the medium was aspirated and cells were washed with phosphate-buffered saline (PBS(−)) which was added gentlely. Then, the PBS(−) was aspirated, an aliquot of 0.25% trypsin solution containing 0.02% EDTA was added to the culture plate, and the morphology of cells was observed under a phase-contrast microscopy. When cells were going to be round, an equal value of MVE medium was added to the trypsin solution to stop the action of trypsin. Attached cells were harvested from the plate by pipetting the medium using a slender pasture pipette. […] Number of viable cells in an aliquot of the suspension was counted under a phase-contrast microscopy using a hemocytometer. […]
Cell suspension (1 ml) was added to collagen-coated 6-well plate(Toyobo Engineering Co., Ltd.) and cultured at 37° C. under a humidified atmosphere of 5% CO2 in air. […] After harvesting cells from the plate by pipetting using a pasture pipete, number of viable cells was counted using a hemocytometer.
(§1) Mean and standard variation value of each group were calculated. […]

[2] = tested on: human microvascular endothelial cells; assay: Inhibition of chemotaxis of human microvascular endothelial cells to VEGF; settings: chemotaxis to 100 ng/ml VEGF, 5 hours, 96-well micro chemotaxis chamber, FIG. 2
Description: According to the method of Example 1 (1), human microvascular endothelial cells were cultured to prepare a cell suspension. Number of viable cells was counted under a phase-contrast microscopy using a hemocytometer and cell concentration was adjusted to 2×10^4 cells/ml.
Tranilast was added to 1% aqueous sodium bicarbonate solution to prepare 0.55% solution and dissolved by warming at 70° C. The solution was sterilized with millipore filter and diluted with DMEM+Ham (1:1) medium to a prescribed final concentration.
Chemotaxis of human dermal microvascular endothelial cells (prepared in (1)) to vascular endothelial growth factor (VEGF) was studied using a 96-well micro chemotaxis chamber (Neuro Probe Inc.). An aliquot (32 μl) of DMEM+Ham (1:1) medium containing 100 ng/ml of VEGF, 0.1% bovine serum and various concentrations of Tranilast was added to the lower cavity of the chemotaxis chamber. An aliquot (50 μl) of medium containing cell suspension and Tranilast was added to the upper cavity of the chamber. Polycarbonate filter (10 μm thickness with 8 μm pore size; Neuro Probe Inc.) coated with type-1 collagen was used for the chemotaxis membrane. […] Number of migrated cells was counted in 5 random fields at ×400 magnification under a phase-contrast microscopy and mean chemotaxis cell number was calculated.
as §1

[3] = tested on: human microvascular endothelial cells; assay: Tube formation of human microvascular endothelial cells on matrigel (number of formed network); settings: 18 hours incubation, various concentrations, FIG. 3
Description: (§2) According to the method of Example 1 (1), human microvascular endothelial cells were cultured to prepare a cell suspension. Number of viable cells was counted under a phase-contrast microscopy using a hemocytometer and cell concentration was adjusted to 4×10^4 cells/ml.
Tranilast was added to 1% aqueous sodium bicarbonate solution to prepare 0.5% solution and dissolved by warming at 70° C. The solution was sterilized with millipore filter and diluted with MVE medium to a prescribed final concentration.
An aliquot (0.25 ml) of matrigel (10 mg/ml, Becton Dickinson Labware) was added to a 24-well culture plate (Corning) and was then allowed to solidify by incubation at 37° C. for 1 hour. Suspension (0.25 ml) of human microvascular endothelial cells (4×10^4 cells) and MVE medium (0.25 ml) containing various concentrations of Tranilast were added onto the gel.

[4] = tested on: human microvascular endothelial cells; assay: Tube formation of human microvascular endothelial cells on matrigel (length of tube structures); settings: 18 hours incubation, various concentrations, FIG. 4
Description: as §2
Tranilast was added to 1% aqueous sodium bicarbonate solution to prepare 1.0% solution and dissolved by warming at 70° C. The solution was sterilized with millipore filter and diluted with MVE medium to a prescribed final concentration.
An aliquot (0.25 ml) of matrigel (10 mg/ml, Becton Dickinson Labware) was added to a 24-well culture plate (Corning) and was then allowed to solidify by incubation at 37° C. for 1 hour. Suspension (0.25 ml) of human microvascular endothelial cells (4×10^4 cells) and MVE medium (0.25 ml) containing various concentrations of Tranilast were added onto the gel. After 18 hours incubation at 37° C., 5 random fields of one well were photographed at ×40 magnification using a phase-contrast microscopy. The lengths of the tube structures were measured and the mean value was calculated.

For `COc1ccc(/C=C/C(=O)Nc2ccccc2C(=O)O)cc1OC` [Tranilast, N-(3,4-Dimethoxycinnamoyl)anthranilic acid], the “proliferation of human microvascular endothelial cells (number of viable cells)” value [1] was “significantly suppressed”, the “chemotaxis of human microvascular endothelial cells (number of migrated cells)” value [2] was “significantly suppressed” and the “number of the formed network (tube formation)” value [3] was “significantly reduced in a concentration-dependent manner”. For the same compound, the “length of the tube structure (tube formation)” value [4] was “significantly reduced in a concentration-dependent manner”.
